Columns and labels:
Format in all cases: in vivo, Male Wistar Rats
[1] = test system: High fat diet induced obesity model in rat; assay: High fat diet induced obesity model in rat: serum biochemistry; details: HFD-fed rats, 12 weeks, p.o.; for LDL / Total Cholesterol / Triglyceride: mean; for LDL % Decrease / Total Cholesterol % Decrease / Triglyceride % Decrease: versus disease control
Protocol: (§1) Screening anti-obesity effect of synergistic combination or composition/formulation comprising OEA and other natural ingredients using High fat diet induced obesity model in rat. […] To maintain appropriate conditions, temperature and relative humidity were recorded three times daily. During complete experiment, animals were supplied with the standard certified rat pellet feed (manufactured by VRK Nutritional Solutions, Pune) and drinking water treated by the reverse osmosis ad libitum. […] In order to evaluate the anti-obesity effect, forty-eight (48) male rats were screened and divided into eight groups. For a comparative analysis, the groups were divided as follows: normal control, disease control, treatment groups with individual component, reference standard drug and test composition/formulation of the present invention. […] The animals under consideration were examined for a study period of 12 weeks. Animals in group (G1) were given normal pellet diet, wherein the other groups were on high fat diet. After completion of study for 12 weeks, each group was analyzed in terms of the body weight and other evaluating parameters such as serum biochemistry (triglyceride, total cholesterol and low density lipoprotein cholesterol (LDL), analysis of liver homogenates and histopathology of liver. Obesity is essentially due to an excessive accumulation of the fatty tissues which leads to many diseases, not limited to insulin resistance, diabetes, fatty liver disease, coronary artery disease, hypertension and polycystic ovary syndrome. In obese conditions, the level of total cholesterol, triglyceride and LDL-cholesterol reaches beyond the normal ranges in human beings. Similarly, high fat diet model in rat is universally accepted model to test the efficacy of the drug for the treatment of obesity. In the above experimental procedure, obesity was induced by administration of a high fat diet (HFD) for the period of 12 weeks. For comparison, the normal control group animals were given a normal pellet diet, whereas the remaining groups were fed with the HFD. As a routine experiment, all animals' body weights were observed on weekly basis. Further, various serum biochemistry parameters such as Triglyceride, total cholesterol and LDL-cholesterol were analyzed at the end of the 12-week treatment period. In this regard, at the end of study period, all animals were euthanized and the liver was isolated. The liver homogenate of each individual animal was prepared and subjected for determination of the level of total cholesterol and Triglyceride. Further, part of the liver was used for histopathological investigation purpose.

[2] = test system: High fat diet induced obesity model in rat; assay: High fat diet induced obesity model in rat: analysis of liver homogenates; details: liver homogenate, HFD-fed rats, 12 weeks, p.o.; for Total Cholesterol / Triglyceride: mean; for Total Cholesterol % Decrease / Triglyceride % Decrease: versus disease control
Protocol: as §1

[3] = test system: High fat diet induced obesity model in rat; assay: High fat diet induced obesity model in rat: body weight; details: HFD-fed rats, end of 12 weeks, p.o., mean; for % increase in body weight: in comparison to normal control group; for Body weight: OEA 41, L-Valine 2, Pantethine 31, Orlistat 10 mg/kg
Protocol: as §1, with “purpose. The primary observation during the experiment was monitoring the body weight of animals. Though the animals were tested weekly for the change in the body weight, an average body weight was measured at the end of 12 weeks, and is tabulated in the Table 2.” for “purpose.”

| SMILES | LDL [1] | Total Cholesterol [1] | Triglyceride [1] | LDL % Decrease [1] | Total Cholesterol % Decrease [1] | Triglyceride % Decrease [1] | Total Cholesterol [2] | Triglyceride [2] | Total Cholesterol % Decrease [2] | Triglyceride % Decrease [2] | % increase in body weight [3] | Body weight [3] |
| --- | --- | --- | --- | --- | --- | --- | --- | --- | --- | --- | --- | --- |
| CC(C)[C@H](N)C(=O)O [L-Valine] | 55.45 mg/dL | 140.00 mg/dL | 115.23 mg/dL | 4.35% | 4.92% | 6.15% | 85.23 mg/dL | 80.02 mg/dL | 5.56% | 3.59% | 22.71% | 338.67 gm |
| CCCCCCCC/C=C\CCCCCCCC(=O)NCCO [OEA, Oleoylethanolamide] | 35.54 mg/dL | 105.54 mg/dL | 100.05 mg/dL | 38.70% | 28.32% | 18.51% | 74.12 mg/dL | 59.98 mg/dL | 17.87% | 27.74% | 12.32% | 310.00 gm |
| CCCCCCCCCCC[C@@H](C[C@@H]1OC(=O)[C@H]1CCCCCC)OC(=O)[C@H](CC(C)C)NC=O [Orlistat] | 25.74 mg/dL | 84.27 mg/dL | 77.62 mg/dL | 55.60% | 42.77% | 36.78% | 60.33 mg/dL | 44.82 mg/dL | 33.15% | 46.00% | 7.97% | 298.00 gm |
